# Source: ChEMBL document CHEMBL1144111, “Strong antinociceptive effect of incarvillateine, a novel monoterpene alkaloid from Incarvillea sinensis” (1999)
# Activity calls are given as the source filed them. No cut-off for these calls is given here.
# Legend:
# [1] = system: Mus musculus; test: Antinociceptive activity against formalin-induced pain in ip dosed ddY mouse assessed as reduction of paw licking response during neurogenic phase pretreated for 10 mins before formalin challenge; type: functional
# [2] = system: Mus musculus; test: Antinociceptive activity against formalin-induced pain in ip dosed ddY mouse assessed as reduction of paw licking response during neurogenic phase pretreated for 10 mins before formalin challenge relative to morphine; type: functional
# [3] = system: Mus musculus; test: Antinociceptive activity against formalin-induced pain in ip dosed ddY mouse assessed as reduction of paw licking response during inflammatory phase pretreated for 10 mins before formalin challenge relative to morphine; type: functional
# [4] = system: Mus musculus; test: Antinociceptive activity against formalin-induced pain in ip dosed ddY mouse assessed as reduction of paw licking response during inflammatory phase pretreated for 10 mins before formalin challenge; type: functional
# [5] = system: Mus musculus; test: Antinociceptive activity against formalin-induced pain in ddY mouse assessed as reduction of paw licking response during neurogenic phase at 20 mg/kg, ip pretreated for 10 mins before formalin challenge in presence of Naloxone; type: functional, organism-based; set-up: dose 20 mg/kg
Structure (SMILES),Activity [1],ED50 [1],Activity [2],Activity [3],Activity [4],ED50 [4],Activity [5]
COc1cc([C@H]2[C@H](C(=O)O[C@@H]3C[C@@H]4[C@@H](CN(C)C[C@@H]4C)[C@@H]3C)[C@H](c3ccc(O)c(OC)c3)[C@H]2C(=O)O[C@@H]2C[C@@H]3[C@@H](CN(C)C[C@@H]3C)[C@@H]2C)ccc1O [INCARVILLATEINE],Dose-dependent effect,17.4 µmol/kg,1.06,1.33,Dose-dependent effect,7.8 µmol/kg,–
CN1CC[C@]23c4c5ccc(O)c4O[C@H]2[C@@H](O)C=C[C@H]3[C@H]1C5 [MORPHINE],–,18.4 µmol/kg,–,–,–,10.4 µmol/kg,inactive
